From PubChem BioAssay AID2060886 (Molecular Pharmacology Branch, DTP, NCI, 2025)
Each block holds one compound with its values, some of them ahead of it.

System: 653999-131-R-J2-PDC complex spheroids, growth inhibition
Test: Anticancer human tumor 653999-131-R-J2-PDC patient-derived lung adenocarcinoma cell line growth inhibition [RAS]
Details: for IC50: curve of first compound; for viability, T/C: stronger effect = lower value
In short: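 Multi-cell-type spheroids: tumor cells plus HUVEC endothelial cells and mesenchymal stem cells. RAS-pathway inhibitors were combined with targeted agents, each dosed in half-log steps down from clinical Cmax, or from 10 microM when Cmax was unknown.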

[1] = second compound 0.0316 µM, first compound 0.0316 µM
[2] = second compound 0.0316 µM, first compound 0.1 µM
[3] = second compound 0.1 µM, first compound 0.0316 µM
[4] = second compound 0.1 µM, first compound 0.1 µM
[5] = second compound 0.316 µM, first compound 0.0316 µM
[6] = second compound 0.316 µM, first compound 0.1 µM
[7] = second compound 1 µM, first compound 0.0316 µM
[8] = second compound 1 µM, first compound 0.1 µM
[9] = second compound 3.16 µM, first compound 0.0316 µM
[10] = second compound 3.16 µM, first compound 0.1 µM
[11] = second compound 10 µM, first compound 0.0316 µM
[12] = second compound 10 µM, first compound 0.1 µM
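Also: spheroids exposed to the agents for seven days before the readout.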

IC50 (second compound 0.0316 µM): 13.6 nM
IC50 (second compound 0.1 µM): 8.56 nM
IC50 (second compound 0.316 µM): 2.52 nM
IC50 (second compound 1 µM): < 0.316 nM
IC50 (second compound 3.16 µM): < 0.316 nM
IC50 (second compound 10 µM): < 0.316 nM
Structure (SMILES): CC(C)n1nc(-c2ccc3oc(N)nc3c2)c2c(N)ncnc21 + C#Cc1c(F)ccc2cc(O)cc(-c3ncc4c(N5CC6CCC(C5)N6)nc(OCC56CCCN5CC(F)C6)nc4c3F)c12
viability, T/C (second compound 0.0316 µM, first compound 0.000316 µM): 97.1%
viability, T/C (second compound 0.0316 µM, first compound 0.001 µM): 97.5%
viability, T/C (second compound 0.0316 µM, first compound 0.00316 µM): 74.1%
viability, T/C (second compound 0.0316 µM, first compound 0.01 µM): 57.8%
viability, T/C [1]: 34.1%
viability, T/C [2]: 24.7%
viability, T/C (second compound 0.1 µM, first compound 0.000316 µM): 94.5%
viability, T/C (second compound 0.1 µM, first compound 0.001 µM): 99.5%
viability, T/C (second compound 0.1 µM, first compound 0.00316 µM): 68.3%
viability, T/C (second compound 0.1 µM, first compound 0.01 µM): 49%
viability, T/C [3]: 28.1%
viability, T/C [4]: 21.3%
viability, T/C (second compound 0.316 µM, first compound 0.000316 µM): 78%
viability, T/C (second compound 0.316 µM, first compound 0.001 µM): 48.8%
viability, T/C (second compound 0.316 µM, first compound 0.00316 µM): 57.9%
viability, T/C (second compound 0.316 µM, first compound 0.01 µM): 35.3%
viability, T/C [5]: 20.2%
viability, T/C [6]: 16.2%
viability, T/C (second compound 1 µM, first compound 0.000316 µM): 42.1%
viability, T/C (second compound 1 µM, first compound 0.001 µM): 38.6%
viability, T/C (second compound 1 µM, first compound 0.00316 µM): 32.3%
viability, T/C (second compound 1 µM, first compound 0.01 µM): 27.1%
viability, T/C [7]: 16.1%
viability, T/C [8]: 10.1%
viability, T/C (second compound 3.16 µM, first compound 0.000316 µM): 42%
viability, T/C (second compound 3.16 µM, first compound 0.001 µM): 43.8%
viability, T/C (second compound 3.16 µM, first compound 0.00316 µM): 24.3%
viability, T/C (second compound 3.16 µM, first compound 0.01 µM): 20.1%
viability, T/C [9]: 10.5%
viability, T/C [10]: 8.31%
viability, T/C (second compound 10 µM, first compound 0.000316 µM): 22.6%
viability, T/C (second compound 10 µM, first compound 0.001 µM): 27.4%
viability, T/C (second compound 10 µM, first compound 0.00316 µM): 17%
viability, T/C (second compound 10 µM, first compound 0.01 µM): 11.6%
viability, T/C [11]: 7.55%
viability, T/C [12]: 5.84%

IC50 (second compound 0.000949 µM): > 10000 nM
IC50 (second compound 0.003 µM): > 10000 nM
IC50 (second compound 0.00949 µM): > 10000 nM
IC50 (second compound 0.03 µM): > 10000 nM
IC50 (second compound 0.0949 µM): > 10000 nM
IC50 (second compound 0.3 µM): > 10000 nM
Structure (SMILES): Cc1nc(N2CCC3(CC2)COC(C)C3N)c(CO)nc1Sc1ccnc(N)c1Cl (stereo unspecified) + CCn1c(-c2cccnc2C(C)OC)c2c3cc(ccc31)N1CCOC(CC(NC(=O)C(C(C)C)N(C)C(=O)C3(F)CCN(C(=O)C#CC(C)(C)N(C)C)CC3)C(=O)N3CCCC(N3)C(=O)OCC(C)(C)C2)C1
viability, T/C (second compound 0.000949 µM, first compound 0.0316 µM): 85.9%
viability, T/C (second compound 0.000949 µM, first compound 0.1 µM): 87.6%
viability, T/C (second compound 0.000949 µM, first compound 0.316 µM): 81.8%
viability, T/C (second compound 0.000949 µM, first compound 1 µM): 67.6%
viability, T/C (second compound 0.000949 µM, first compound 3.16 µM): 81.7%
viability, T/C (second compound 0.000949 µM, first compound 10 µM): 78.9%
viability, T/C (second compound 0.003 µM, first compound 0.0316 µM): 103%
viability, T/C (second compound 0.003 µM, first compound 0.1 µM): 98.2%
viability, T/C (second compound 0.003 µM, first compound 0.316 µM): 83.5%
viability, T/C (second compound 0.003 µM, first compound 1 µM): 70.4%
viability, T/C (second compound 0.003 µM, first compound 3.16 µM): 78.6%
viability, T/C (second compound 0.003 µM, first compound 10 µM): 80.3%
viability, T/C (second compound 0.00949 µM, first compound 0.0316 µM): 96%
viability, T/C (second compound 0.00949 µM, first compound 0.1 µM): 71%
viability, T/C (second compound 0.00949 µM, first compound 0.316 µM): 84.8%
viability, T/C (second compound 0.00949 µM, first compound 1 µM): 87%
viability, T/C (second compound 0.00949 µM, first compound 3.16 µM): 75.2%
viability, T/C (second compound 0.00949 µM, first compound 10 µM): 81.2%
viability, T/C (second compound 0.03 µM, first compound 0.0316 µM): 89.6%
viability, T/C (second compound 0.03 µM, first compound 0.1 µM): 76.8%
viability, T/C (second compound 0.03 µM, first compound 0.316 µM): 83.6%
viability, T/C (second compound 0.03 µM, first compound 1 µM): 75.8%
viability, T/C (second compound 0.03 µM, first compound 3.16 µM): 83.2%
viability, T/C (second compound 0.03 µM, first compound 10 µM): 76.8%
viability, T/C (second compound 0.0949 µM, first compound 0.0316 µM): 92%
viability, T/C (second compound 0.0949 µM, first compound 0.1 µM): 82.2%
viability, T/C (second compound 0.0949 µM, first compound 0.316 µM): 93.6%
viability, T/C (second compound 0.0949 µM, first compound 1 µM): 86.5%
viability, T/C (second compound 0.0949 µM, first compound 3.16 µM): 94.4%
viability, T/C (second compound 0.0949 µM, first compound 10 µM): 77.4%
viability, T/C (second compound 0.3 µM, first compound 0.0316 µM): 84.1%
viability, T/C (second compound 0.3 µM, first compound 0.1 µM): 88.3%
viability, T/C (second compound 0.3 µM, first compound 0.316 µM): 72.4%
viability, T/C (second compound 0.3 µM, first compound 1 µM): 89.7%
viability, T/C (second compound 0.3 µM, first compound 3.16 µM): 80.3%
viability, T/C (second compound 0.3 µM, first compound 10 µM): 81.7%

IC50 (second compound 0.0316 µM): 1220 nM
IC50 (second compound 0.1 µM): 593 nM
IC50 (second compound 0.316 µM): 190 nM
IC50 (second compound 1 µM): 84.5 nM
IC50 (second compound 3.16 µM): < 31.6 nM
IC50 (second compound 10 µM): < 31.6 nM
Structure (SMILES): CC(C)NCC(C(=O)N1CCN(c2ncnc3c2C(C)CC3O)CC1)c1ccc(Cl)cc1 (stereo unspecified) + C#Cc1c(F)ccc2cc(O)cc(-c3ncc4c(N5CC6CCC(C5)N6)nc(OCC56CCCN5CC(F)C6)nc4c3F)c12
viability, T/C [1]: 109%
viability, T/C [2]: 84.2%
viability, T/C (second compound 0.0316 µM, first compound 0.316 µM): 72%
viability, T/C (second compound 0.0316 µM, first compound 1 µM): 53.6%
viability, T/C (second compound 0.0316 µM, first compound 3.16 µM): 35%
viability, T/C (second compound 0.0316 µM, first compound 10 µM): 28.9%
viability, T/C [3]: 97.6%
viability, T/C [4]: 55.7%
viability, T/C (second compound 0.1 µM, first compound 0.316 µM): 70.4%
viability, T/C (second compound 0.1 µM, first compound 1 µM): 43.6%
viability, T/C (second compound 0.1 µM, first compound 3.16 µM): 37.6%
viability, T/C (second compound 0.1 µM, first compound 10 µM): 32.1%
viability, T/C [5]: 56.5%
viability, T/C [6]: 62.6%
viability, T/C (second compound 0.316 µM, first compound 0.316 µM): 38.8%
viability, T/C (second compound 0.316 µM, first compound 1 µM): 38.9%
viability, T/C (second compound 0.316 µM, first compound 3.16 µM): 26.2%
viability, T/C (second compound 0.316 µM, first compound 10 µM): 20.5%
viability, T/C [7]: 64.7%
viability, T/C [8]: 40.8%
viability, T/C (second compound 1 µM, first compound 0.316 µM): 45%
viability, T/C (second compound 1 µM, first compound 1 µM): 21%
viability, T/C (second compound 1 µM, first compound 3.16 µM): 19.4%
viability, T/C (second compound 1 µM, first compound 10 µM): 14%
viability, T/C [9]: 36.9%
viability, T/C [10]: 43.9%
viability, T/C (second compound 3.16 µM, first compound 0.316 µM): 27.9%
viability, T/C (second compound 3.16 µM, first compound 1 µM): 19%
viability, T/C (second compound 3.16 µM, first compound 3.16 µM): 12.7%
viability, T/C (second compound 3.16 µM, first compound 10 µM): 9.87%
viability, T/C [11]: 23.3%
viability, T/C [12]: 23.3%
viability, T/C (second compound 10 µM, first compound 0.316 µM): 22.8%
viability, T/C (second compound 10 µM, first compound 1 µM): 14.1%
viability, T/C (second compound 10 µM, first compound 3.16 µM): 9.37%
viability, T/C (second compound 10 µM, first compound 10 µM): 5.49%
